Test results reported in patent US20170071235A1 (priority 2014, published 2017).

What was measured:
[1] = test system: TNF-α secretion produced by PMA-differentiated macrophages; assay type: cell-based, human
[2] = test system: IL-1β secretion produced by PMA-differentiated macrophages; assay type: cell-based, human
[3] = thiol group; cited from earlier work

Structure (SMILES) | TNF-α secretion [1] | IL-1β response [2] | release of IL-1β [2] | effect on proliferation of THP-1 monocytes (THP-1 monocytes) | pKa [3]
CC1=C[C@H]2O[C@@H]3[C@H](O)C[C@](C)([C@@]2(CO)[C@H](O)C1=O)[C@]31CO1 [DON, deoxynivalenol] | increase in TNF-α | did not show an IL-1β response | increased the release of IL-1β | decreased the proliferation | 
C=C1[C@@H]2O[C@@H]3C=C(C)C(=O)[C@@H](O)[C@]3(CO)[C@@]1(C)C[C@H]2O [deepoxy-DON] |  |  | did not | did not | 
OCCS [mercaptoethanol, 2-mercaptoethanol] |  |  |  |  | ~9.6
